From patent US10253185B2, “Fluorogenic pH-sensitive dyes and their methods of use (II)” (LIFE TECHNOLOGIES CORPORATION, priority 2012, dated 2019)

Key:
[1] = system: cells; test: Intracellular pH response of dye-loaded cells under perfusion with pH standards (nigericin/valinomycin); type: cell-based; conditions: 5 μM loading; potassium LCIS pH standards 7.4, 7.2, 6.5, 6.0; nigericin and valinomycin 10 μM each
Procedure: 10 mL loading buffer, Compound (4): 10 μL Compound (4) from a 5 mM DMSO stock was added to 100 μL Powerload and mixed. 10 mL LCIS was added to this solution for final concentration of Compound (4) of 5 μM.
Cells were cultured on 35 mm MatTek glass bottom dishes. For loading, cells were rinsed 1× with LCIS and replaced with loading buffer described above. Cells were incubated at 37° C. for 60 minutes, then rinsed 2× with LCIS and imaged with standard TRITC or FITC filter sets. (see FIG. 5).
Cells were cultured and loaded as described above with Compound (4). This solution was removed from the cells and replaced with potassium LCIS pH 7.4 standard and imaging experiments begun with cells under constant perfusion by potassium LCIS pH standards of pH 7.4, 7.2, 6.5, and 6.0. […] (Nigericin and valinomycin added at 10 μM each from DMSO stock.) Images of Compound (4) AM loaded cells at pH 7.4 and 6.0 are shown in FIG. 6. Functional kinetic responses from individually selected cells in the sample are shown in FIG. 7 as the pH was changed from 7.4 to 6.0 and back.

[2] = system: J774.2 murine macrophages; test: No-wash phagocytosis assay with E. coli bioparticles conjugated to pH-sensitive dye; type: cell-based; conditions: E. coli bioparticle-dye conjugates, J774.2 macrophages
Excerpt: Certain embodiments provide a no-wash, no-quench assay for phagocytosis that is based on fluorogenic bioparticles comprising the pH-sensitive fluorescent dye compounds provided herein. Current protocols for measuring phagocytosis that use fluorescent bioparticles, require a trypan blue quenching step and several washing steps. These steps can introduce significant variability in the assay. To address this issue, provided herein is a no-wash phagocytosis kit, using E. coli bioparticles conjugated to a pH-sensitive fluorescent dye as described herein. These bioparticle conjugates are weakly fluorescent at extracellular pH. […] The pH-sensitive fluorescent bioparticles described herein may be used in plate based, as well as imaging and flow cytometry assays of phagocytosis.

Compound | signal from the dye inside of the cells as external pH changed [1] | uptake of the bioparticles (phagocytosis) [2]
CCN(CCCC(=O)NCCCCC(C(=O)OCOC(C)=O)N(CC(=O)OCOC(C)=O)CC(=O)OCOC(C)=O)c1cc(OC)c(-c2c3ccc(=[N+](C)C)cc-3oc3cc(N(C)C)ccc23)cc1N(C)C (centres unmarked) [Compound (4), N-(9-(4-((8-(2-(acetoxymethoxy)-2-oxoethyl)-9-((acetoxymethoxy)carbonyl)-2,6,15-trioxo-3,5-dioxa-8,14-diazaoctadecan-18-yl)(ethyl)amino)-5-(dimethylamino)-2-methoxyphenyl)-6-(dimethylamino)-3H-xanthen-3-ylidene)-N-methylmethanaminium] | the signal from the dye inside of the cells changed | 
cytochalaisin D |  | potently inhibited
